According to US11912737B2, “19-nor neuroactive steroids and methods of use thereof” (Sage Therapeutics, Inc., priority 2013, dated 2024):

Each compound was assayed against [35S]-TBPS binding, rat brain cortical membranes (assay: Steroid inhibition of [35S]-TBPS binding). Conditions: 3 nM [35S]-TBPS, in the presence of 5 μM GABA.
Method: Steroid Inhibition of TBPS Binding
[35S]-t-Butylbicylophorothionate (TBPS) binding assays using rat brain cortical membranes in the presence of 5 μM GABA has been described (Gee et al, J. Pharmacol. Exp. Ther. 1987, 241, 346-353; Hawkinson et al, Mol. Pharmacol. 1994, 46, 977-985; Lewin, A. H et al., Mol. Pharmacol. 1989, 35, 189-194).
Briefly, cortices are rapidly removed following decapitation of carbon dioxide-anesthetized Sprague-Dawley rats (200-250 g). The cortices are homogenized in 10 volumes of ice-cold 0.32 M sucrose using a glass/teflon homogenizer and centrifuged at 1500×g for 10 min at 4° C. The resultant supernatants are centrifuged at 10,000×g for 20 min at 4° C. to obtain the P2 pellets. The P2 pellets are resuspended in 200 mM NaCl/50 mM Na—K phosphate pH 7.4 buffer and centrifuged at 10,000×g for 10 min at 4° C. This washing procedure is repeated twice and the pellets are resuspended in 10 volumes of buffer. Aliquots (100 μL) of the membrane suspensions are incubated with 3 nM [^35S]-TBPS and 5 μL aliquots of test drug dissolved in dimethyl sulfoxide (DMSO) (final 0.5%) in the presence of 5 μM GABA. The incubation is brought to a final volume of 1.0 mL with buffer. Nonspecific binding is determined in the presence of 2 μM unlabeled TBPS and ranged from 15 to 25%. Following a 90 min incubation at room temp, the assays are terminated by filtration through glass fiber filters (Schleicher and Schuell No. 32) using a cell harvester (Brandel) and rinsed three times with ice-cold buffer. Filter bound radioactivity is measured by liquid scintillation spectrometry. Non-linear curve fitting of the overall data for each drug averaged for each concentration is done using Prism (GraphPad).
Various compounds are or can be screened to determine their potential as modulators of [^355]-TBPS binding in vitro. These assays are or can be performed in accordance with the above discussed procedures.

Compound | IC50 [nM]
C[C@@]1(O)CC[C@H]2[C@H](CC[C@@H]3[C@@H]2CC[C@]2(C)[C@@H](C(=O)CN4CC(O)C4)CC[C@@H]32)C1 [Entry 5] | ≥ 500
C[C@@H]1COCCN1CC(=O)[C@H]1CC[C@H]2[C@@H]3CC[C@@H]4C[C@](C)(O)CC[C@@H]4[C@H]3CC[C@]12C [Entry 11] | 100 to 500
C[C@@]1(O)CC[C@H]2[C@@H](CC[C@@H]3[C@@H]2CC[C@]2(C)[C@@H](C(=O)CN4CCC(O)CC4)CC[C@@H]32)C1 [Entry 12] | ≥ 500
CC(=O)N1CCN(CC(=O)[C@H]2CC[C@H]3[C@@H]4CC[C@H]5C[C@](C)(O)CC[C@@H]5[C@H]4CC[C@]23C)CC1 [Entry 13] | 100 to 500
C[C@@]1(O)CC[C@H]2[C@@H](CC[C@@H]3[C@@H]2CC[C@]2(C)[C@@H](C(=O)CN4CCCC(O)C4)CC[C@@H]32)C1 (some centres unmarked) [Entry 15] | ≥ 500
C[C@H]1C[C@H]2[C@@H](CC[C@@H]3[C@@H]2CC[C@]2(C)[C@@H](C(=O)CN4CCOCC4)CC[C@@H]32)C[C@]1(C)O [Entry 18] | 100 to 500
CC(=O)N1CCN(CC(=O)[C@H]2CC[C@H]3[C@@H]4CC[C@H]5C[C@](C)(O)[C@H](C)C[C@@H]5[C@H]4CC[C@]23C)CC1 [Entry 20] | 100 to 500
CC(=O)N1CCN(CC(=O)[C@H]2CC[C@H]3[C@@H]4CC[C@H]5C[C@](C)(O)[C@@H](C)C[C@@H]5[C@H]4CC[C@]23C)CC1 [Entry 21] | 100 to 500
COC[C@@]1(O)CC[C@H]2[C@H](CC[C@@H]3[C@@H]2CC[C@]2(C)[C@@H](C(=O)CN4CCN(S(C)(=O)=O)CC4)CC[C@@H]32)C1 [Entry 22] | 100 to 500
C[C@@]1(O)CC[C@H]2[C@H](CC[C@@H]3[C@@H]2CC[C@]2(C)[C@@H](C(=O)CN4CCNCC4)CC[C@@H]32)C1 [Entry 23] | ≥ 500
C[C@@]1(O)CC[C@H]2[C@@H](CC[C@@H]3[C@@H]2CC[C@]2(C)[C@@H](C(=O)CN4CCNCC4)CC[C@@H]32)C1 [Entry 24] | ≥ 500
C[C@@H]1C[C@H]2[C@@H](CC[C@@H]3[C@@H]2CC[C@]2(C)[C@@H](C(=O)CN4CCN(S(C)(=O)=O)CC4)CC[C@@H]32)C[C@]1(C)O [Entry 25] | 50 to 100
C[C@H]1CN(CC(=O)[C@H]2CC[C@H]3[C@@H]4CC[C@@H]5C[C@](C)(O)CC[C@@H]5[C@H]4CC[C@]23C)C[C@H](C)O1 [Entry 31] | 10 to 50
CC[C@@]1(O)CC[C@H]2[C@@H](CC[C@@H]3[C@@H]2CC[C@]2(C)[C@@H](C(=O)CN4CCN(S(C)(=O)=O)CC4)CC[C@@H]32)C1 [Entry 33] | 100 to 500
C[C@@H]1CCCCN1CC(=O)[C@H]1CC[C@H]2[C@@H]3CC[C@@H]4C[C@](C)(O)CC[C@@H]4[C@H]3CC[C@]12C [Entry 37] | 100 to 500
C[C@@]1(O)CC[C@@H]2[C@H]3CC[C@]4(C)[C@@H](C(=O)CN5CCOCC5)CC[C@H]4[C@@H]3C[C@@H](F)[C@H]2C1 [Entry 38] | ≥ 500
C[C@@H]1C[C@H]2[C@@H](CC[C@@H]3[C@@H]2CC[C@]2(C)[C@@H](C(=O)CN4CCOCC4)CC[C@@H]32)C[C@]1(C)O [Entry 39] | 100 to 500
C[C@]12CC[C@H]3[C@@H](CC[C@@H]4C[C@@](O)(C(F)F)CC[C@@H]43)[C@@H]1CC[C@@H]2C(=O)CN1CCOCC1 [Entry 40] | ≥ 500
CO[C@H]1C[C@H]2[C@@H](CC[C@@H]3[C@@H]2CC[C@]2(C)[C@@H](C(=O)CN4CCOCC4)CC[C@@H]32)C[C@]1(C)O [Entry 41] | ≥ 500
COC[C@@]1(O)CC[C@H]2[C@@H](CC[C@@H]3[C@@H]2CC[C@]2(C)[C@@H](C(=O)CN4CCOCC4)CC[C@@H]32)C1 [Entry 42] | ≥ 500
COC[C@@]1(O)CC[C@H]2[C@H](CC[C@@H]3[C@@H]2CC[C@]2(C)[C@@H](C(=O)CN4CCOCC4)CC[C@@H]32)C1 [Entry 43] | ≥ 500
C[C@@]1(O)CC[C@@H]2[C@H]3CC[C@]4(C)[C@@H](C(=O)CN5CCOCC5)CC[C@H]4[C@@H]3C[C@@H](F)[C@@H]2C1 [Entry 44] | ≥ 500
C[C@]12CC[C@H]3[C@@H](CC[C@@H]4C[C@@](O)(CF)CC[C@@H]43)[C@@H]1CC[C@@H]2C(=O)CN1CCOCC1 [Entry 46] | ≥ 500
C[C@]12CC[C@H]3[C@@H](CC[C@H]4C[C@@](O)(CF)CC[C@@H]43)[C@@H]1CC[C@@H]2C(=O)CN1CCOCC1 [Entry 48] | ≥ 500
CC[C@@]1(O)CC[C@H]2[C@@H](CC[C@@H]3[C@@H]2CC[C@]2(C)[C@@H](C(=O)CN4CCOCC4)CC[C@@H]32)C1 [Entry 49] | ≥ 500
C[C@@]1(O)CC[C@H]2[C@H](CC[C@@H]3[C@@H]2CC[C@]2(C)[C@@H](C(=O)CN4CCNCC4)CC[C@@H]32)C1 [Entry 51] | 100 to 500
COC[C@@]1(O)CC[C@H]2[C@@H](CC[C@@H]3[C@@H]2CC[C@]2(C)[C@@H](C(=O)CN4CCN(S(C)(=O)=O)CC4)CC[C@@H]32)C1 [Entry 52] | 100 to 500
C[C@@]1(O)CC[C@H]2[C@H](CC[C@@H]3[C@@H]2CC[C@]2(C)[C@@H](C(=O)CN4CCCOCC4)CC[C@@H]32)C1 [Entry 53] | 100 to 500

These compounds were tested against α1β2γ2 GABAA receptor (Homo sapiens (Human), UniProt P14867+P47870) (assay: not given). Conditions: not given.

Compound | EC50 [nM]
C[C@@H]1CN(CC(=O)[C@H]2CC[C@H]3[C@@H]4CC[C@@H]5C[C@](C)(O)CC[C@@H]5[C@H]4CC[C@]23C)CCO1 [Entry 2] | 1000 to 2000
C[C@@H]1COCCN1CC(=O)[C@H]1CC[C@H]2[C@@H]3CC[C@@H]4C[C@](C)(O)CC[C@@H]4[C@H]3CC[C@]12C [Entry 3] | > 2000

Same assay, conditions: LTK, read-out: GABA (α1β2γ2) Qpatch in Ltk, % efficacy at 10 μM, Qpatch, Ltk cells, 10 μM compound, 2 μM GABA

Compound | Emax at 10 µM [%]
C[C@@H]1CN(CC(=O)[C@H]2CC[C@H]3[C@@H]4CC[C@@H]5C[C@](C)(O)CC[C@@H]5[C@H]4CC[C@]23C)CCO1 [Entry 6] | 100 to 500
C[C@@H]1COCCN1CC(=O)[C@H]1CC[C@H]2[C@@H]3CC[C@@H]4C[C@](C)(O)CC[C@@H]4[C@H]3CC[C@]12C [Entry 7] | 100 to 500
CNC(=O)N1CCN(CC(=O)[C@H]2CC[C@H]3[C@@H]4CC[C@@H]5C[C@](C)(O)CC[C@@H]5[C@H]4CC[C@]23C)CC1 [Entry 9] | 100 to 500
CC(=O)N1CCN(CC(=O)[C@H]2CC[C@H]3[C@@H]4CC[C@H]5C[C@](C)(O)CC[C@@H]5[C@H]4CC[C@]23C)CC1 [Entry 10] | 100 to 500
CC(=O)N1CCN(CC(=O)[C@H]2CC[C@H]3[C@@H]4CC[C@@H]5C[C@](C)(O)CC[C@@H]5[C@H]4CC[C@]23C)CC1 [Entry 17] | 100 to 500
CC(=O)N1CCN(CC(=O)[C@H]2CC[C@H]3[C@@H]4CC[C@H]5C[C@](C)(O)[C@H](C)C[C@@H]5[C@H]4CC[C@]23C)CC1 [Entry 26] | 100 to 500
COC[C@@]1(O)CC[C@H]2[C@H](CC[C@@H]3[C@@H]2CC[C@]2(C)[C@@H](C(=O)CN4CCN(S(C)(=O)=O)CC4)CC[C@@H]32)C1 [Entry 30] | > 500
C[C@]12CC[C@H]3[C@@H](CC[C@@H]4C[C@@](O)(CF)CC[C@@H]43)[C@@H]1CC[C@@H]2C(=O)CN1CCN(S(C)(=O)=O)CC1 [Entry 32] | > 500
CC[C@@]1(O)CC[C@H]2[C@H](CC[C@@H]3[C@@H]2CC[C@]2(C)[C@@H](C(=O)CN4CCN(S(C)(=O)=O)CC4)CC[C@@H]32)C1 [Entry 34] | 100 to 500
C[C@@H]1C[C@H]2[C@@H](CC[C@@H]3[C@@H]2CC[C@]2(C)[C@@H](C(=O)CN4CCOCC4)CC[C@@H]32)C[C@]1(C)O [Entry 47] | 10 to 100
COC[C@@]1(O)CC[C@H]2[C@@H](CC[C@@H]3[C@@H]2CC[C@]2(C)[C@@H](C(=O)CN4CCOCC4)CC[C@@H]32)C1 [Entry 50] | 10 to 100

Same assay, conditions: LTK, read-out: GABAa alpha1 (α1β2γ2) Emax (%), potentiation of GABA EC20 (2 μM) current

Compound | Emax [%]
C[C@@H]1CN(CC(=O)[C@H]2CC[C@H]3[C@@H]4CC[C@@H]5C[C@](C)(O)CC[C@@H]5[C@H]4CC[C@]23C)CCO1 [Entry 2] | 0 to 500
C[C@@H]1COCCN1CC(=O)[C@H]1CC[C@H]2[C@@H]3CC[C@@H]4C[C@](C)(O)CC[C@@H]4[C@H]3CC[C@]12C [Entry 3] | 0 to 500

Same assay, conditions: Qpatch, Ltk cells, 10 μM compound, 2 μM GABA

Compound | GABA (α1β2γ2) Qpatch in Ltk, % efficacy at 10 μM
COC[C@@]1(O)CC[C@H]2[C@@H](CC[C@@H]3[C@@H]2CC[C@]2(C)[C@@H](C(=O)CN4CCN(S(C)(=O)=O)CC4)CC[C@@H]32)C1 [Entry 29] | B (“B” ≥100-500)
